This is an account of results in patent US20210252265A1, “DEVICES AND METHODS FOR ULTRASONIC DELIVERY OF AN AGENT WITHIN AN ORAL CAVITY” (Suono Bio, Inc., priority 2018, published 2021).

Structures are written as SMILES.

In this experiment the test system is oral inflammatory lesions in hamster cheek pouches. Put plainly: Treatment of acetic acid-induced oral inflammatory lesions in hamster cheek pouches. In kind it is in vivo, Golden Syrian hamsters. The conditions noted are these: mean +/- SEM. The procedure: FIG. 10 is a schematic of the procedure used to test delivery of budesonide to treat or prevent ulcers induced by acetic acid in hamster cheek pouches. 50% acetic acid was administered for 60 seconds. Male Golden Syrian hamsters weighing 100-120 g (Charles River Laboratories, Wilmington, Mass.) were used as received and randomly assigned to experimental groups by the researchers performing the work. To limit pain and distress, all animals received buprenorphine sustained release (SR) (subcutaneous administration, 1 mg/kg body weight, compounded by ZooPharm) just prior to the application of acetic acid for the induction of the oral lesion on day 0. All manipulations occurred with the animal under general anesthesia by inhaled isoflurane. Experimental treatment groups included topical application of budesonide solution with (Budesonide+US) and without (Budesonide) ultrasound. A positive disease control receiving no treatment was also included (Disease). Treatment was administered on day 0 immediately prior to lesion induction using acetic acid. While under general anesthesia, the left cheek pouch was everted, the device was placed on the buccal surface, and the fluid chamber filled with solubilized budesonide solution (0.1%, ˜1 mL). For the Budesonide+US treatment group, ultrasound was simultaneously applied for 3 seconds at an intensity of 5 W/cm2 and a 100% duty cycle. In experimental groups receiving budesonide only (Budesonide), drug was applied as described above without turning the ultrasound on. Immediately following budesonide treatment, oral lesions were induced by topical application of acetic acid (50% solution) as described in previous studies. Briefly, acetic acid was applied to the buccal surface using a liquid holder with a circular area of 5 mm2 for 60 seconds. After acetic acid application, the hamsters were placed back into their cages to recover. On every subsequent day, the cheek pouches were everted to reveal the lesion and an image captured to quantify lesion size. Treatments were then applied as described above. Lesion size was measured using ImageJ (National Institutes of Health, Bethesda, Md.). All data analysis was performed using GraphPad Prism software (GraphPad Software, Inc., La Jolla, Calif., USA). Two-group comparisons were made using Student's unpaired t-test using Welch's correction. Multiple comparisons were made using one-way ANOVA followed by Tukey's post-test. For all comparisons, p<0.05 was considered statistically significant. Data are reported as mean±standard error of the mean (SEM) except for temperature measurements that are reported as mean±standard deviation (SD).

In the case of `CCCC1O[C@@H]2C[C@H]3[C@@H]4CCC5=CC(=O)C=C[C@]5(C)[C@H]4[C@@H](O)C[C@]3(C)[C@]2(C(=O)CO)O1` (stereo partly shown) [Budesonide], the oral lesion size is listed as 15.7+/−1.3 mm2 (24 hours post-acetic acid induced injury, budesonide solution 0.1% with 40 kHz ultrasound 3 seconds, 5 W/cm2); 20.3+/−1.1 mm2 (24 hours post-acetic acid induced injury, topical budesonide solution 0.1% without ultrasound); 18.71+/−2.3 mm2 (48 hours after acetic acid-induced injury, budesonide with ultrasound); 25.5+/−1.6 mm2 (48 hours after acetic acid-induced injury, topical budesonide without ultrasound).
